Where two headings read alike, the source gives them in different places.
Legend:
[1] = molecular target: SQR of 06STD024 (SDHC / altC) mitochondria (Zymoseptoria tritici, UniProt A0A1X7RQW2+F9X9V6+F9XH52+O42772); experiment: Succinate-quinone (SQR) SDHI sensitivity assay on purified mitochondria, 06STD024; type: biochemical
Outline: (§1)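 Succinate:ubiquinone/DCPIP reductase inhibition measured on purified mitochondria from Zymoseptoria tritici strains carrying either a single C-subunit gene (ZtSDHC1, ZtSDHC1_A84I or ZtSDHC3) or both ZtSDHC1 and ZtSDHC3; pTet::SDHC3 transformant tested under repressed and induced conditions.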

[2] = molecular target: SQR (SDHC) of D024 SDHC3 KO mitochondria (Zymoseptoria tritici, UniProt F9X9V6+F9XH52+O42772); experiment: Succinate-quinone (SQR) SDHI sensitivity assay on purified mitochondria, 06STD024 SDHC3 KO; type: biochemical
Outline: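 Mitochondria purified from each strain were used for succinate:ubiquinone/DCPIP reductase assays, with suspensions adjusted to similar initial velocity (1 OD595nm hour^-1). Inhibitor was tested at 0.047 nM–50 μM in 4x steps (11 concentrations plus DMSO). IC50 came from non-linear fits of absorbance slopes (OD/min) against log concentration.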

[3] = molecular target: altC-SQR (altC) of D024 SDHC1 KO mitochondria (Zymoseptoria tritici, UniProt A0A1X7RQW2+F9X9V6+O42772); experiment: Succinate-quinone (SQR) SDHI sensitivity assay on purified mitochondria, 06STD024 SDHC1 KO; type: biochemical; settings: for RF (resistance factor), D024 SDHC1 KO (altC): IC50 ratio compared to IPO323 values
Outline: as §1

[4] = system: SQR (SDHC / altC) of IPO323 pTet::SDHC3 transformant, induced; experiment: Succinate-quinone (SQR) SDHI sensitivity assay on purified mitochondria, IPO323 pTet::SDHC3 induced; type: biochemical, Zymoseptoria tritici; settings: IPO323 pTet::SDHC3 transformant grown in the absence of doxycycline; mean of three ± SD
Outline: as §1

[5] = molecular target: SQR (SDHC / altC) of IPO323 pTet::SDHC3 transformant, repressed (Zymoseptoria tritici, UniProt A0A1X7RQW2+F9X9V6+F9XH52+O42772); experiment: Succinate-quinone (SQR) SDHI sensitivity assay on purified mitochondria, IPO323 pTet::SDHC3 repressed; type: biochemical
Outline: as §1

[6] = system: Zymoseptoria tritici field and genetically modified strains; experiment: Liquid culture assay for fungicide sensitivity determination; type: cell-based; settings: Zymoseptoria tritici
Method: Sensitivity towards commercial fungicides was determined for a set of 99 SHA-SDHI-naïve Z. tritici field isolates sampled in Europe between 2006 and 2009. The EC50 of these isolates was determined in liquid growth assays and the data obtained compared for each possible pair of SDHI fungicides (cross-resistance (XR) plots, Fig 1). […] Comparative succinate-quinone reductase (SQR) enzyme inhibition tests were performed with mitochondria extracted from a panel of SHA-SDHIs tolerant and sensitive isolates.
In order to characterize in more depth the mechanisms driving sensitivity differences across the isolates, a subset of eight isolates carrying the ZtSDHC3 gene was analyzed for their sensitivity to SDHIs, alt-SDHC expression and splicing patterns. Liquid culture growth sensitivity tests were performed to determine EC50s for this set of isolates towards a wide range of commercial and research SDHIs (S5 Table).
Pre-culture of the inoculum and fungicide sensitivity tests were performed following previously described procedures. Different ranges of inhibitor concentrations were used for population monitoring and for the detailed phenotyping of a selected set of individual field isolates and genetically modified strains. For fungicide sensitivity monitoring of European field populations, final inhibitors concentrations were between 100 mg.L^-1 and 0.0001 mg.L^-1 with uniform 10x dilution steps (7 inhibitor concentrations + DMSO control). For refined sensitivity analysis of a smaller panel of isolates final inhibitor concentrations ranged between 0.5 mM and 0.47 nM with uniform 4x dilution factor steps (11 inhibitor concentrations+ DMSO control).

[7] = system: Zymoseptoria tritici isolates; experiment: Growth tests on solid agar at discriminatory fungicide concentrations; type: cell-based; settings: AE agar, fluopyram 5 mg.L^-1, 18 DPI (procedure of Fig 6)
Text: Fig 6 Resistance to SHA-SDHIs in Z. tritici EU populations. […] Sensitivity data are sorted by genotype according to the presence of the ZtSDHC3 gene. ** p value of 0.0029 in Welch’s corrected unpaired t-test. (B) Solid agar growth of a collection of 93 Z. tritici isolates sampled in 2009 (same set as above). Individual strains from this collection are boxed and numbered 1 to 93. Boxes A and B correspond to reference resistant strains 06STD024 and 07STGB009 respectively. Box C corresponds to IPO323 reference sensitive isolate. The yellow framed boxes correspond to strains carrying the ZtSDHC3 gene. Yellow arrow designates strain 09STIR20.1 (number 78) carrying a non-functional alt-SDHC (frameshift, S6 Table).
A large scale spotting assay of 96 isolates (Fig 6) was performed using the V&P 96 floating pin tool VP408FP6 (V&P Scientific), equipped with flat tip FP6 pins of 1.58 mm diameter (resulting in approx. 0.4 μl transfer volume). Source cultures for cell spotting were grown in 100 μl YPD liquid medium in a 96 well flat bottom plate (Corning, 3370) at 18°C for 11 days (average cell density of 3.5·10^6/ml), then diluted 1:2x in fresh YPD medium and incubated for another 1.5 h before transfer with the pin tool (approx. 700 cells per spot) onto AE agar with or without fungicide. Plates were incubated at 20°C in the dark for up to 18 days. Smaller scale spotting assays (Figs 4 and 8) were performed using 5 days V8-agar plates inoculums adjusted to 2.10^6 spores.mL^-1 in water and diluted in steps of 3. 2μL of spore suspension was spotted on the plates, and the plates were incubated shielded from light at 21°C for 6 days.

[8] = IC50 ratio compared to IPO323 values

Sequence of altC-SQR (altC) of D024 SDHC1 KO mitochondria (A0A1X7RQW2 36-181): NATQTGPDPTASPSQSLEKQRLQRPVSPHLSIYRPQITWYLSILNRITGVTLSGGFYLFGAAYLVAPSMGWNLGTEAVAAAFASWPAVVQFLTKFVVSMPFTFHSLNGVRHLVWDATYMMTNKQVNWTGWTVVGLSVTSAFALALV
Sequence of altC-SQR (altC) of D024 SDHC1 KO mitochondria (O42772 20-297): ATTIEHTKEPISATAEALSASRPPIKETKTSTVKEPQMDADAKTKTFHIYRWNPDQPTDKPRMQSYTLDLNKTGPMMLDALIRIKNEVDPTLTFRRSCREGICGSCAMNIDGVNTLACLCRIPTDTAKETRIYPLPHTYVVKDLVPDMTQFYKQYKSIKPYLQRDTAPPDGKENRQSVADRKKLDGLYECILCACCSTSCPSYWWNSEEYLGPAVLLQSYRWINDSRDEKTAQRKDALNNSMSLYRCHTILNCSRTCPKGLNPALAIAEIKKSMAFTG
Sequence of altC-SQR (altC) of D024 SDHC1 KO mitochondria (F9X9V6 1-193): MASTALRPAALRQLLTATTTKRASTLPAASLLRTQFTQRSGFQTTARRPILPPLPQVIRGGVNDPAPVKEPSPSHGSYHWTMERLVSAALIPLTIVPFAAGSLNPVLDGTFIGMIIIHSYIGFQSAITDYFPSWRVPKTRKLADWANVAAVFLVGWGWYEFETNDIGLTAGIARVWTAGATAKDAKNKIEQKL
Sequence of altC-SQR (altC) of D024 SDHC1 KO mitochondria (F9WWR1 41-643 partner): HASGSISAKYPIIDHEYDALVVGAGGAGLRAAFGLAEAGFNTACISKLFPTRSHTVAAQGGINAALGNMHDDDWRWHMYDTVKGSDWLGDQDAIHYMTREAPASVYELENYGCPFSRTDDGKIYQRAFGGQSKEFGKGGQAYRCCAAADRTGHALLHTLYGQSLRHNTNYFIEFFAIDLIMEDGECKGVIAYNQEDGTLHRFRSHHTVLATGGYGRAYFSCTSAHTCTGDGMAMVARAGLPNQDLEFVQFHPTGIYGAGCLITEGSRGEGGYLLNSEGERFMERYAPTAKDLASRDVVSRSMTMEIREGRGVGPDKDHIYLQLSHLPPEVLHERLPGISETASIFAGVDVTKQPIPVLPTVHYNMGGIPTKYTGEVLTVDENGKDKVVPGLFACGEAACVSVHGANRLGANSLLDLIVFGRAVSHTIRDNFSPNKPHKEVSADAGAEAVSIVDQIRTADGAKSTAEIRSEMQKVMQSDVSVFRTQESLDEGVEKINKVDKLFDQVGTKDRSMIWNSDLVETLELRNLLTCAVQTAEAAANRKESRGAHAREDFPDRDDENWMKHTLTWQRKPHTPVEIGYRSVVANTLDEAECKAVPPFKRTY
Sequence of SQR of 06STD024 (SDHC / altC) mitochondria (A0A1X7RQW2 36-181): as the sequence (A0A1X7RQW2 36-181) above
Sequence of SQR of 06STD024 (SDHC / altC) mitochondria (O42772 19-297): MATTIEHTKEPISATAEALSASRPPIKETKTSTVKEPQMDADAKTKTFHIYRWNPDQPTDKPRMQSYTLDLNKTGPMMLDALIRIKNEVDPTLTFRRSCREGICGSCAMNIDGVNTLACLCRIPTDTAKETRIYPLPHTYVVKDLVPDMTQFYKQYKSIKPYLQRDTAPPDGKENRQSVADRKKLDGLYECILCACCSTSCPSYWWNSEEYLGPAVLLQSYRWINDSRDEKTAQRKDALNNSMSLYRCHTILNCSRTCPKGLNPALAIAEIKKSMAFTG
Sequence of SQR of 06STD024 (SDHC / altC) mitochondria (F9X9V6 1-193): as the sequence (F9X9V6 1-193) above
Sequence of SQR of 06STD024 (SDHC / altC) mitochondria (F9XH52 44-187): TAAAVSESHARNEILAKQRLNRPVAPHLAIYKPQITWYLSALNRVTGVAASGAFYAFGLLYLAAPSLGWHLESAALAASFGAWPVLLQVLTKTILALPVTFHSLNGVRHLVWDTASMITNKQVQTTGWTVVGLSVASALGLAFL
Sequence of SQR of 06STD024 (SDHC / altC) mitochondria (F9WWR1 29-643 partner): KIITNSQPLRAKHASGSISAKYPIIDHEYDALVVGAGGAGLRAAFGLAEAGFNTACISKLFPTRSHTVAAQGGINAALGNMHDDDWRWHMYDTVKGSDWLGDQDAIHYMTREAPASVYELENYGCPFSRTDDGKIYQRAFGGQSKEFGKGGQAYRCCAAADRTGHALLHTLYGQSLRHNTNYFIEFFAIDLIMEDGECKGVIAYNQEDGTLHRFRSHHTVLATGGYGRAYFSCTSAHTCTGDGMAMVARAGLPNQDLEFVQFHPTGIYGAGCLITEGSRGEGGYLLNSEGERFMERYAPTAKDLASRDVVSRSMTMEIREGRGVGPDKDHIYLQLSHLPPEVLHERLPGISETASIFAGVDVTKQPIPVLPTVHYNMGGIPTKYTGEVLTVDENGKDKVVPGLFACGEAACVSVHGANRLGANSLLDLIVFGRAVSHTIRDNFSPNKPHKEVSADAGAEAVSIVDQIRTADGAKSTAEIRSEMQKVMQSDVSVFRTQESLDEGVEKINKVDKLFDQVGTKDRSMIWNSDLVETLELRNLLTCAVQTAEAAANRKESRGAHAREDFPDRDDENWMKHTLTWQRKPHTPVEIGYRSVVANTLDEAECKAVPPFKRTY
Sequence of SQR (SDHC / altC) of IPO323 pTet::SDHC3 transformant, repressed (F9XH52 44-187): as the sequence (F9XH52 44-187) above
Sequence of SQR (SDHC / altC) of IPO323 pTet::SDHC3 transformant, repressed (O42772 20-297): as the sequence (O42772 20-297) above
Sequence of SQR (SDHC / altC) of IPO323 pTet::SDHC3 transformant, repressed (F9X9V6 1-193): as the sequence (F9X9V6 1-193) above
Sequence of SQR (SDHC / altC) of IPO323 pTet::SDHC3 transformant, repressed (A0A1X7RQW2 36-181): as the sequence (A0A1X7RQW2 36-181) above
Sequence of SQR (SDHC / altC) of IPO323 pTet::SDHC3 transformant, repressed (F9WWR1 41-643 partner): as the sequence (F9WWR1 41-643 partner) above

Q: `O=C(NCCc1ncc(C(F)(F)F)cc1Cl)c1ccccc1C(F)(F)F` [Fluopyram] was tested. Which “RF (resistance factor), 06STD024 (SDHC / altC)” value [1, 8] did it give?
A: 111.3

Q: What about the IC50 ([1]; mitochondria of field isolate 06STD024, mean of three ± SD) of the same compound?
A: 1390 ± 522 nM

Q: And the “RF (resistance factor), D024 SDHC3 KO (SDHC)” value [2, 8]?
A: 0.8

Q: And the IC50 ([2]; mitochondria of 06STD024 ZtSDHC3 deletion mutant, mean of three ± SD)?
A: 10.1 ± 2 nM

Q: And the “RF (resistance factor), D024 SDHC1 KO (altC)” value [3]?
A: 93.4

Q: What about the “RF (resistance factor), D024 SDHC1 KO (altC)” value ([3]; listed as fluopyram) of the same compound?
A: ~100

Q: What about the IC50 ([3]; mitochondria of 06STD024 ZtSDHC1 deletion mutant (pure altC-SQR), mean of three ± SD) of the same compound?
A: 1160 ± 201 nM

Q: What about the IC50 [4] of the same compound?
A: 548 ± 68.8 nM

Q: And the “RF (resistance factor), pTet Repressed (SDHC / altC)” value [5, 8]?
A: 1.8

Q: What about the IC50 ([5]; IPO323 pTet::SDHC3 transformant grown in presence of 30 mg.L^-1 doxycycline, mean of three ± SD) of the same compound?
A: 21.9 ± 7.7 nM

Q: What about the EC50 ([6]; read-out: EC50 (nM) Mean, strain 06STD024, liquid culture sensitivity) of the same compound?
A: 9360 nM

Q: And the EC50 ([6]; read-out: EC50 (nM) Mean, strain 07STGB009, liquid culture sensitivity)?
A: 10900 nM

Q: What about the EC50 ([6]; read-out: EC50 (nM) Mean, strain 09STD041, liquid culture sensitivity) of the same compound?
A: 1370 nM

Q: And the EC50 ([6]; read-out: EC50 (nM) Mean, strain 09STD053, liquid culture sensitivity)?
A: 558 nM

Q: What about the EC50 ([6]; read-out: EC50 (nM) Mean, strain 09STF011, liquid culture sensitivity) of the same compound?
A: 3570 nM

Q: And the EC50 ([6]; read-out: EC50 (nM) Mean, strain 09STF037, liquid culture sensitivity)?
A: 461 nM

Q: And the EC50 ([6]; read-out: EC50 (nM) Mean, strain 09STF112, liquid culture sensitivity)?
A: 2890 nM

Q: What about the EC50 ([6]; read-out: EC50 (nM) Mean, strain 09STIR20.3, liquid culture sensitivity) of the same compound?
A: 419 nM

Q: What about the EC50 ([6]; read-out: EC50 (nM) Mean, strain Flu21 (SDHC1_A84I), liquid culture sensitivity) of the same compound?
A: 4580 nM

Q: What about the EC50 ([6]; read-out: EC50 (nM) Mean, strain IPO323, liquid culture sensitivity) of the same compound?
A: 222 nM

Q: What about the EC50 ([6]; read-out: EC50 (nM) Mean, strain IPO94269, liquid culture sensitivity) of the same compound?
A: 147 nM

Q: What about the EC50 ([6]; read-out: EC50 (nM) Mean, strain KO_SDHC1_T1, liquid culture sensitivity) of the same compound?
A: 25600 nM

Q: And the EC50 ([6]; read-out: EC50 (nM) Mean, strain KO_SDHC1_T3, liquid culture sensitivity)?
A: 21200 nM

Q: What about the EC50 ([6]; read-out: EC50 (nM) Mean, strain KO_SDHC3_T4, liquid culture sensitivity) of the same compound?
A: 350 nM

Q: What about the EC50 ([6]; read-out: EC50 (nM) Mean, strain KO_SDHC3_T13, liquid culture sensitivity) of the same compound?
A: 351 nM

Q: And the EC50 ([6]; read-out: EC50 (nM) Mean, strain pTet::SDHC3_I78A_T1, liquid culture sensitivity)?
A: 354 nM

Q: What about the EC50 ([6]; read-out: EC50 (nM) Mean, strain pTet::SDHC3_I78A_T5, liquid culture sensitivity) of the same compound?
A: 818 nM

Q: What about the EC50 ([6]; read-out: EC50 (nM) Mean, strain pTet::SDHC3_I78A_T15, liquid culture sensitivity) of the same compound?
A: 552 nM

Q: What about the EC50 ([6]; read-out: EC50 (nM) Mean, strain pTet::SDHC3_I78A_T35, liquid culture sensitivity) of the same compound?
A: 143 nM

Q: And the EC50 ([6]; read-out: EC50 (nM) Mean, strain pTet::SDHC3_T1, liquid culture sensitivity)?
A: 16000 nM

Q: And the EC50 ([6]; read-out: EC50 (nM) Mean, strain pTet::SDHC3_T2, liquid culture sensitivity)?
A: 14300 nM

Q: What about the EC50 ([6]; read-out: EC50 (nM) Mean, strain pTet::SDHC3_T3, liquid culture sensitivity) of the same compound?
A: 6750 nM

Q: What about the EC50 ([6]; read-out: EC50 (nM) Mean, strain pTet::SDHC3_T7, liquid culture sensitivity) of the same compound?
A: 24500 nM

Q: And the EC50 ([6]; read-out: Fluopyram EC50 in liquid culture, panel of ZtSDHC3 containing isolates, field isolates collected in 2009 carrying ZtSDHC3, from sensitive to resistant)?
A: 0.3 to 3.2 µg/mL

Q: What about the “Growth phenotype on SDHI-amended plate” value ([7]; strain 06STD024) of the same compound?
A: Very strong

Q: What about the “Growth phenotype on SDHI-amended plate” value ([7]; strain 07STGB009) of the same compound?
A: Very strong

Q: And the “Growth phenotype on SDHI-amended plate” value ([7]; strain 09STD041)?
A: Weak

Q: And the “Growth phenotype on SDHI-amended plate” value ([7]; strain 09STD053)?
A: Weak

Q: And the “Growth phenotype on SDHI-amended plate” value ([7]; strain 09STF011)?
A: Moderate

Q: And the “Growth phenotype on SDHI-amended plate” value ([7]; strain 09STF037)?
A: Very weak

Q: What about the “Growth phenotype on SDHI-amended plate” value ([7]; strain 09STF112) of the same compound?
A: Strong

Q: And the “Growth phenotype on SDHI-amended plate” value ([7]; strain 09STIR20.3)?
A: Very weak

Q: What about the “Growth phenotype on SDHI-amended plate” value ([7]; strain IPO323) of the same compound?
A: No

Q: What about the “Growth phenotype on SDHI-amended plate” value ([7]; strain IPO94269) of the same compound?
A: No
